In this experiment the target is PDEδ (Homo sapiens, UniProt O43924). Briefly: competitive fluorescence polarization displacement assay. It is filed as binding. How it is done:
The Kd values were determined by the fluorescence polarization competition-binding assay, which we developed before.
For orientation: In fluorescence polarisation assays a small probe gives low polarisation when free and higher when bound to something large.

Turning to `COc1ccc(CNC(=O)CCCn2nc(C)c3c(C)n(-c4ccccc4)nc3c2=O)cc1` [2d], the Kd worked out at 81 ± 21 nM.

As to `Cc1nn(CCCC(=O)NCCc2ccccc2)c(=O)c2nn(-c3ccccc3)c(C)c12` [2f], binding was characterised by a dissociation constant (Kd) of 29 ± 7 nM.

`Cc1ccc(-n2nc3c(=O)n(CCCC(=O)NCc4ccco4)nc(C)c3c2C)cc1` [2g]: binding was put at a Kd of 50 ± 16 nM.

`Cc1nn(CCCC(=O)NCc2ccccc2)c(=O)c2nn(-c3ccccc3)c(C)c12` [2c] displayed an equilibrium dissociation constant (Kd) of 42 ± 15 nM.

With `Cc1c(Cl)cccc1NC(=O)CCCn1nc(C)c2c(C)n(-c3ccccc3)nc2c1=O` [2a], the Kd turned out to be 5 ± 2 nM.

For the compound `Cc1ccc(CNC(=O)CCCn2nc(C)c3c(C)n(-c4ccccc4)nc3c2=O)cc1` [2e], the Kd came out at 96 ± 14 nM.

`Cc1ccc(-n2nc3c(=O)n(CCCC(=O)NCc4ccccc4)nc(C)c3c2C)cc1` [2h] registered a Kd of 17 ± 9 nM.

`Cc1ccc(CCNC(=O)CCCn2nc(C)c3c(C)n(-c4ccc(C)cc4)nc3c2=O)cc1` [2j]: binding was put at a Kd of 5 ± 3 nM.

`Cc1ccc(-n2nc3c(=O)n(CCCC(=O)NCCc4ccccc4)nc(C)c3c2C)cc1` [2i]: binding was put at a Kd of 6 ± 2 nM.

The compound `Cc1nn(CCCC(=O)NCc2ccco2)c(=O)c2nn(-c3ccccc3)c(C)c12` [2b] yielded a Kd of 136 ± 55 nM.

The Kd is a measure of binding affinity in units of concentration. A higher Kd goes with a looser complex.

Source of the values: publication PMC4843002, “Identification of pyrazolopyridazinones as PDEδ inhibitors” (Nature Communications, 2016).
